Test results: article PMC8708704, “Discovery of New Chemical Tools against Leishmania amazonensis via the MMV Pathogen Box” (Pharmaceuticals, 2021)
Read-outs that look alike come from different tables or passages of the source.

Experiments:
[1] = Cytotoxic activity against murine macrophages (alamarBlue); conditions: mouse
[2] = test system: Leishmania amazonensis intracellular amastigote; assay: Intracellular amastigote activity (parasite rescue and transformation assay); format: cell-based; conditions: for IC50: Leishmania amazonensis, Macrophage, read-out: Leishmania amazonensis Intracellular Amastigote IC50; for Selectivity Index (CC50/IC50), intracellular amastigote: macrophage CC50 / amastigote IC50
Protocol: The intracellular amastigote activity was measured by parasite rescue and transformation assay, also performed according to Jain et al. […] The macrophages were placed in a 96 well plate at a density of 2 × 10^5/mL in DMEM and incubated for 5 h. […] After the incubation, the excess promastigotes were washed off and serial dilutions of the compounds were added. After 24 h of incubation, we removed the medium and added 30 μL of Schneider medium with 0.05% SDS to break the macrophages. The plate was shaken for 30 s and a further 180 μL of medium was added to each well. The plates were then incubated at 26 °C for 72 h for the transformation of the rescued amastigote into promastigotes. AlamarBlue® was added and the plates were measured and analyzed as discussed above.

[3] = test system: Leishmania amazonensis promastigotes; assay: Leishmanicidal activity against promastigotes (alamarBlue assay; screening at 10 µM and IC50); format: cell-based; conditions: for IC50 / inhibition at 10 µM: 72 h; for IC50: read-out: Leishmania amazonensis Promastigotes IC50; for Selectivity Index (CC50/IC50), promastigotes: macrophage CC50 / promastigote IC50; for inhibition at 10 µM: first screening, read-out: % of inhibition at 10 µM (against L. amazonensis promastigotes)
Protocol: For the experiments, promastigotes of Leishmania amazonensis strain (MHOM/BR/77/LTB0016) were used; they were maintained in RPMI 1640 medium (Gibco, Massachusetts, USA) at 26 °C. […] Subsequently, the plates were analyzed on an EnSpire multimode plate reader (PerkinElmer, MA, USA) to measure their fluorescence after 72 h. […] To this end, serial dilutions were performed in 96 well plates, and incubated with the parasites for 72 h after adding alamarBlue®. Next, the plates were analyzed on the EnSpire plate reader and the IC50 values were calculated by using SigmaPlot 14.0 (Systat Software Inc., Chicago, IL, USA). Each concentration was tested in duplicate and in three independent experiments for all the compounds.

[4] = test system: CYP2C9; design: method as in mmv.org; conditions: human cytochrome; ref mmv.org; cited from earlier work
[5] = test system: Trypanosoma brucei brucei trypomastigotes; design: method as in PMID 28674055, PMID 19091562; conditions: cited from earlier work
[6] = design: method as in mmv.org; conditions: ref mmv.org; cited from earlier work
[7] = test system: CYP2D6; design: method as in mmv.org; conditions: human cytochrome; ref mmv.org; cited from earlier work
[8] = test system: L. amazonensis promastigotes; assay: Reactive oxygen species detection (CellROX Deep Red); format: cell-based, Leishmania amazonensis; conditions: IC90 of the compounds, 24 h
Protocol: After 30 min in darkness, the cells were observed under a fluorescent inverted microscope EVOS FL (Life Technologies, Thermo Fisher Scientific, Waltham, MA, USA). This staining was performed three times in independent tests. A positive control was performed as the internal control and corresponded to cells in which ROS production was achieved through the incubation of parasites with 600 µM hydrogen peroxide 30 min before detection.

[9] = test system: methionine aminopeptidase; design: method as in PMID 28674055; conditions: cited from earlier work
[10] = test system: Leishmania amazonensis promastigotes; assay: ATP levels (CellTiter-Glo); format: cell-based; conditions: IC90 of the compounds, 24 h
Protocol: To detect alterations due to the different treatments on the cellular ATP levels, CellTiter-Glo (Promega) was utilized. […] Finally, luminescence was measured on the EnSpire spectrophotometer (Perkin Elmer). The experiment was performed at least three times in duplicate on different days.

[11] = test system: intracellular amastigotes of L. donovani; conditions: cited from earlier work
[12] = test system: Plasmodium falciparum; design: method as in PMID 19091562; conditions: cited from earlier work
[13] = test system: T. cruzi intracellular amastigotes; design: method as in PMID 19091562; conditions: cited from earlier work
[14] = test system: T. evansi trypomastigotes; design: method as in PMID 32112721; conditions: cited from earlier work
[15] = test system: L. donovani promastigotes; design: method as in PMID 32280200; conditions: cited from earlier work
[16] = test system: NADPH oxidase 4; design: method as in PMID 20731357; conditions: cited from earlier work
[17] = test system: promastigotes; conditions: read-out: IC50 against promastigotes, cited from earlier work
[18] = test system: intracellular amastigotes; conditions: read-out: IC50 against intracellular amastigotes, cited from earlier work
[19] = test system: L. amazonensis promastigotes; assay: Phosphatidylserine externalization (annexin V / propidium iodide, Tali); format: cell-based, Leishmania amazonensis; conditions: IC90, 24 h (Figure 4 legend: 48 h)
Source text: To measure the level of population that experiments phosphatidylserine externalization from the inner to the outer part of the cytoplasmic membrane, an Apoptosis kit for Tali (Invitrogen, Thermo Fisher Scientific, Waltham, MA, USA) was utilized. The kit employs annexin-v, which binds to the external phosphatidylserine, and propidium iodide, that penetrates dead cells, to classify the population of the cells as: alive ([…]), dead (propidium stained), and apoptotic (annexin stained). […] A minimum of three independent experiments were performed for this assay. The cells were then quantified by the image-based cytometer Tali® (Life Technologies, Thermo Fisher Scientific, Waltham, MA, USA).

[20] = test system: thioredoxin reductase; design: method as in PMID 18532880; conditions: cited from earlier work
[21] = 24 h treatment of infected macrophages, rescue 72 h
[22] = Leishmania amazonensis, alamarBlue

| Structure (SMILES) | IC50 [2, 21] [µM] | Selectivity Index (CC50/IC50), promastigotes [3] | CC50 at 24 h ([1]; J774A.1 murine macrophages) [µM] | Selectivity Index (CC50/IC50), intracellular amastigote [2] | IC50 [3, 22] [µM] | inhibition at 10 µM ([3]; Leishmania amazonensis) [%] | IC50 ([3]; alamarBlue) [µM] | IC50 [4] [µM] | Activity against Trypanosoma brucei brucei trypomastigotes [5] | Glutathione Reactivity [6] | IC50 [7] [µM] | ROS accumulation (CellROX Deep Red fluorescence) [8] | also measured |
| --- | --- | --- | --- | --- | --- | --- | --- | --- | --- | --- | --- | --- | --- |
| COc1nc2ccc(Br)cc2cc1[C@@H](c1ccccc1)[C@@](O)(CCN(C)C)c1cccc2ccccc12 [Compound 1, Bedaquiline, reference compound] |  | >1.56 |  |  |  |  |  |  |  |  |  |  | CC50 at 24 h [1]: > 10 µM; IC50 [2]: > 10 µM; IC50 ([3]; Leishmania amazonensis): 6.43 ± 1.06 µM |
| c1ccc(-c2nc(NC3CCCCC3)cc(C3CC3)n2)nc1 [Compound 10, N-Cyclohexyl-6-cyclopropyl-2-pyridin-2-ylpyrimidin-4-amine] | 1.33 ± 0.36 | >5.40 | > 10 | >7.52 | < 2 | 90 | 1.85 ± 0.39 | > 20 | activity | No GSH adduct | > 20 | accumulation of ROS | Inhibition of methionine aminopeptidase [9]: inhibitor; ATP levels [10]: less pronounced decrease; Activity against intracellular amastigotes of L. donovani [11]: activity; Activity against Plasmodium falciparum [12]: active; Activity against T. cruzi intracellular amastigotes [13]: active |
| O=C(Nc1ccc(N2CCNCC2)cc1)c1ccn2ncc(-c3cccc(Cl)c3)c2n1 [Compound 9, 3-(3-Chlorophenyl)-N-(4-piperazin-1-ylphenyl)pyrazolo [1,5-a]pyrimidine-5-carboxamide] | 6.9 ± 1.79 | 9.35 | 7.22 ± 2.36 | 1.05 | 0.77 ± 0.01 | 91 |  | > 20 | activity | No GSH adduct | > 20 | accumulation of ROS | Activity against T. evansi trypomastigotes [14]: active; Activity against L. donovani promastigotes [15]: activity; Inhibition of NADPH oxidase 4 [16]: inhibits |
| CCCCCCCCCCCCCCCCOP(=O)([O-])OCC[N+](C)(C)C [Miltefosine] |  | 11.14 | 72.2 ± 3.06 | 23.14 |  |  |  |  |  |  |  |  | IC50 ([17]; ref Alonso et al. [15]): 7.8 µM; IC50 ([17]; ref Trinconi et al. [16]): 16.8 µM; IC50 ([18]; ref Alonso et al. [15]): 1.8 µM; IC50 ([18]; ref Trinconi et al. [16]): 2.6 µM |
| COc1cccc(-n2nnnc2S(=O)(=O)Cc2ccccc2)c1 [Compound 3, 5-(Benzylsulfonyl)-1-(3-methoxyphenyl)-1H-tetrazole] | 4.78 ± 1.2 |  | 8.02 ± 0.93 | 1.68 | < 2 | 91 | 1.33 ± 0.12 | > 20 |  | Medium | 15 |  | Dead population (propidium iodide stained) [19]: higher percentage; Translocation of phosphatidylserine, part of the parasite population [19]: higher than 50%; ATP levels [10]: strong decrease; Interference with thioredoxin reductase [20]: interferes |
| N#Cc1nc(-c2ccccc2)oc1S(=O)(=O)c1ccc(Cl)cc1 [Compound 2] | > 10 | >2.48 | > 10 |  | 4.03 ± 0.73 |  |  |  |  |  |  |  |  |

The next lines start with results.

| IC50 [2, 21] [µM] | Structure (SMILES) | Selectivity Index (CC50/IC50), promastigotes [3] | CC50 at 24 h ([1]; J774A.1 murine macrophages) [µM] | Selectivity Index (CC50/IC50), intracellular amastigote [2] | IC50 [3, 22] [µM] | inhibition at 10 µM ([3]; Leishmania amazonensis) [%] | IC50 ([3]; alamarBlue) [µM] | IC50 [4] [µM] | Activity against Trypanosoma brucei brucei trypomastigotes [5] | Glutathione Reactivity [6] | IC50 [7] [µM] | ROS accumulation (CellROX Deep Red fluorescence) [8] | also measured |
| --- | --- | --- | --- | --- | --- | --- | --- | --- | --- | --- | --- | --- | --- |
| 2.5 ± 0.27 | CN1CCC(NCc2cccc(-c3ccc(S(=O)(=O)NCc4ccccc4)cc3)c2)CC1 [Compound 7, N-Benzyl-4-[3-[[(1-methylpiperidin-4-yl)amino]methyl]phenyl]benzenesulfonamide] | >5.44 | > 10 | >4.00 | < 2 | 91 | 1.84 ± 0.14 | > 20 | activity | No GSH adduct | > 20 | accumulation of ROS |  |
| 8.52 ± 0.67 | CCCn1c(NC(=O)c2ccc3ccccc3n2)nc2ccccc21 [Compound 6] | >2.54 | > 10 | >1.17 | 3.93 ± 0.64 |  |  |  |  | medium |  |  |  |
| 1.25 ± 0.28 | C[C@H](c1ccc2c(c1)CCCC2)N(C)c1ncc2c(N)nc(N)nc2n1 [Compound 5, 2-N-Methyl-2-N-[(1R)-1-(5,6,7,8-tetrahydronaphthalen-2-yl)ethyl]pyrimido [4,5-d]pyrimidine-2,5,7-triamine] | >17.06 | > 10 | >8.00 | 0.59 ± 0.08 | 90 |  | > 20 | activity | Medium | > 20 | too damaged to contain the dye | Dead population (propidium iodide stained) [19]: higher percentage; Translocation of phosphatidylserine, part of the parasite population [19]: higher than 50%; ATP levels [10]: strong decrease; Anti-leishmanial activity (L. donovani) ([11]; stage not clearly stated for this compound): activity |
| > 10 | Cn1c(=O)c2c(S(C)(=O)=O)snc2n(C)c1=O [Compound 4] | 2.94 | 4.3 ± 0.16 |  | < 2 |  | 1.44 ± 0.24 |  |  |  |  |  |  |
| 6.85 ± 0.75 | CN1CCN(CCCOc2ncc(Nc3ncc(-c4ccc(C(F)(F)F)c(F)c4)nc3C(N)=O)cn2)CC1 [Compound 8] | 3.06 | 8.01 ± 1.13 | 1.17 | 2.62 ± 0.4 |  |  |  |  |  |  |  |  |
